By EC50 is commonly meant the midpoint of the concentration-response curve.

The values that follow come from patent US8450522B2, “Conformationally constrained carboxylic acid derivatives useful for treating metabolic disorders” (Amgen Inc., priority 2008, dated 2013).

Entries after “also recorded” stand apart in the source; their conditions may differ.

The target in assay [1] is T1, GPR40 (Homo sapiens, UniProt O14842). Put plainly: Cell-based aequorin assay (CHO cells stably transfected with GPR40 and aequorin). Further details: expressed in transfected cells. The note with it: activation of human GPR40, CHO cells, 0.01% HSA. How it is done: Briefly, the Aequorin assays were performed on doubly stable CHO cells expressing GPR40 and Aequorin DNA. […] The luminescence was recorded over a period of 20 seconds with a Microlumat luminometer (Berthold).
T1 sequence (O14842 whole entry): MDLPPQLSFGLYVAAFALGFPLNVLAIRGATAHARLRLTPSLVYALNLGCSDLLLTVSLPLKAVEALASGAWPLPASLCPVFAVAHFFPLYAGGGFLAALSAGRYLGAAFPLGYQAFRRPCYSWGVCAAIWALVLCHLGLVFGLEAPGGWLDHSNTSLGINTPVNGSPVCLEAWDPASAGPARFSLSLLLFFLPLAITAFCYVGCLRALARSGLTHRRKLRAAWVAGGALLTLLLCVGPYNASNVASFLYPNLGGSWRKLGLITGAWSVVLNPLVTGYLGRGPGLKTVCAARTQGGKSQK
Cell-based aequorin assays were employed to characterize the modulatory activity of compounds on the GPR40 signaling pathway. In an exemplary assay, CHO cells were stably transfected with both GPR40 and Aequorin (Euroscreen). Cells were detached from the tissue culture dish with 2 mL of trypsin (0.25% (w/v)). Trypsinization was halted with 28 mL of Hanks Buffered Salt Solution containing 20 mM Hepes (H/HBSS) and 0.01% fatty acid-free human serum albumin (HSA). Coelantrazine is added to 1 ug/mL, and the cells were incubated for 2 hours at room temperature. Compounds were dissolved in DMSO for preparation of 10 mM stock solutions. Compounds were diluted in H/HBSS containing 0.01% HSA. Serial dilutions of the test compounds were prepared to determine dose response.
Aequorin luminescence measurements were made using an EG&G Berthold 96-well luminometer, and the response was measured over a 20 second interval after cells and compounds were mixed. The maximum relative light units was plotted to determine dose response. The EC50 (effective concentration to reach 50% maximal response) was determined from the dose response plot.

For assay [2], the target named is T1, GPR40. Put plainly: Competition binding assay on A9 membranes expressing GPR40. Details: expressed in transfected cells; host or cells: membranes of A9 cells expressing GPR40. The note with it: 5 nM [3H] labeled Comparative Compound 1, 4 hours at room temperature. As to the method: Competition binding assays were performed on A9 membranes expressing GPR40.

Assay [3] has as its target T1, GPR40. Put plainly: Inositol phosphate accumulation assay (A9 cell line stably transfected with GPR40). The note with it: human GPR40, A9_GPR40 cells, 1 hour at 37° C.; read-out: IP3 EC50 (inositol phosphate assay data). Type of assay: cell-based. Details: expressed in transfected cells. How it is done: An A9 cell line stably transfected with GPR40 (A9_GPR40) was used in IP accumulation assays. A9_GPR40 cells were plated in 96-well plates containing 20,000 cells/well in DMEM containing 10% FBS. After the cells attached to the well surface, the media was replaced with inositol free DMEM containing 10% dialyzed FBS and 1 μCi, mL ^3H-inositol and incubated for 16 hours. Compounds were diluted in HBSS/10 mM LiCl containing a desired amount of HSA and added directly to cells. Following 1 hour incubation at 37° C., the media was replaced with 100 μl of 20 mM formic acid to quench the reaction. 50 μL of the extract was then added to 100 μL of SPA beads, incubated overnight, and measured on a TopCount the following day.

In the case of `COc1ccc(F)c(-c2ccc(COc3ccc4c(c3)[C@@H](CC(=O)O)CC4)cc2C(C)(C)C)c1` (single isomer, unassigned) [Example 1, ((1R)-6-(((2-(1,1-Dimethylethyl)-2′-fluoro-5′-(methyloxy)-1,1′-biphenyl-4-yl)methyl)oxy)-2,3-dihydro-1H-inden-1-yl)acetic acid or ((1S)-6-(((2-(1,1-Dimethylethyl)-2′-fluoro-5′-(methyloxy)-1,1′-biphenyl-4-yl)methyl)oxy)-2,3-dihydro-1H-inden-1-yl)acetic acid], the EC50 at GPR40 [1] fell in the range of 1000 to 10000 nM. On GPR40 [2], the “displacement of 3H-labeled Comparative Compound 1” value is “did not displace” and the “effect on binding of the radioligand (3H-labeled Comparative Compound 1) to the receptor” value was “enhanced the total binding; also recorded: enhanced the binding of the radioligand”.

On to `COc1cc(-c2ccc(COc3ccc4c(c3F)[C@@](C)(CC(=O)O)CC4)cc2[C@@H](OC)C(C)(C)C)c(F)cn1` (single isomer, unassigned) [Example 39, {(R)-7-Fluoro-6-[4-(5-fluoro-2-methoxy-pyridin-4-yl)-3-((S)-1-methoxy-2,2-dimethyl-propyl)-benzyloxy]-1-methyl-indan-1-yl}-acetic acid or stereoisomer thereof], for which the EC50 on GPR40 [3] was in the range of 10 to 100 nM; at GPR40 [1], 100 to 1000 nM.

For `CC[C@]1(CC(=O)O)CCc2ccc(OCc3ccc(-c4cc(OC)ccc4F)c([C@H]4CCCC4(C)C)c3)cc21` (single isomer, unassigned) [Example 42], the values for the 50% effective concentration (EC50) on GPR40 [3] and at GPR40 [1] were 10 to 100 nM and 100 to 1000 nM, respectively.

As to `CC[C@]1(CC(=O)O)CCc2ccc(OCc3ccc(-c4cc(OC)ncc4F)c([C@H]4CCCC4(C)C)c3)cc21` (single isomer, unassigned) [Example 43], the values for the EC50 on GPR40 [3] and on GPR40 [1] were 10 to 100 nM and 100 to 1000 nM, respectively.

On to `CC[C@]1(CC(=O)O)CCc2ccc(OCc3ccc(-c4cc(OC)ccc4F)c([C@@H](OC)C(C)(C)C)c3)cc21` (single isomer, unassigned) [Example 44], for which the EC50 at GPR40 [3] was 10 to 100 nM; on GPR40 [1], 100 to 1000 nM.

Consider `CC[C@]1(CC(=O)O)CCc2ccc(OCc3ccc(-c4cc(OC)ccc4F)c([C@@H](OC)C(C)(C)C)c3)cc21` (single isomer, unassigned) [Example 45], for which the EC50 on GPR40 [3] and at GPR40 [1] was 100 to 1000 nM throughout.

Consider `COc1cc(-c2ccc(COc3ccc4c(c3)[C@@H](CC(=O)O)CCC4)cc2[C@H]2CCCC2(C)C)c(F)cn1` (single isomer, unassigned) [Example 46], for which the EC50 lay within 10 to 100 nM at GPR40 [3] and 100 to 1000 nM on GPR40 [1].

As for `COc1cc(-c2ccc(COc3ccc4c(c3)[C@@](C)(CC(=O)O)CCC4)cc2[C@H]2CCCC2(C)C)c(F)cn1` (single isomer, unassigned) [Example 48], the values for the EC50 at GPR40 [3] and at GPR40 [1] were 10 to 100 nM and 100 to 1000 nM, respectively.

For `COc1ccc(F)c(-c2ccc(COc3ccc4c(c3)[C@H]([C@@H](C)C(=O)O)CC4)cc2C2=CCCC2(C)C)c1` [Example 14], the results for the EC50 on GPR40 [3] and on GPR40 [1] were 10 to 100 nM and 100 to 1000 nM, respectively.

For `COc1ccc(F)c(-c2ccc(COc3ccc4c(c3)[C@H]([C@@H](C)C(=O)O)CC4)cc2[C@H]2CCCC2(C)C)c1` [Example 15], the results for the EC50 at GPR40 [3] and on GPR40 [1] were 10 to 100 nM and 100 to 1000 nM, respectively.

For `COc1cc(-c2ccc(COc3ccc4c(c3F)C(C)(CC(=O)O)CC4)cc2C2CCCC2(C)C)c(F)cn1` [Example 40, {(S)-6-[3-((S)-2,2-Dimethyl-cyclopentyl)-4-(5-fluoro-2-methoxy-pyridin-4-yl)-benzyloxy]-7-fluoro-1-methyl-indan-1-yl}-acetic acid or stereoisomer thereof], the EC50 at GPR40 [3] and on GPR40 [1] was 100 to 1000 nM throughout.
